Experimental data published in ChEMBL document CHEMBL4842377, “Synthesis and biological evaluation of selective histone deacetylase 6 inhibitors as multifunctional agents against Alzheimer's disease” (Eur J Med Chem, 2021).
Calls of active or inactive are those of the source. The rule behind the calls is not given here.

Key:
[1] = target: T1, Protein deacetylase HDAC6 (Homo sapiens, UniProt Q9UBN7); experiment: Inhibition of human HDAC6 using fluorogenic substrate incubated for 1 hrs by fluorescence plate reader assay
T1 sequence (Q9UBN7 whole entry): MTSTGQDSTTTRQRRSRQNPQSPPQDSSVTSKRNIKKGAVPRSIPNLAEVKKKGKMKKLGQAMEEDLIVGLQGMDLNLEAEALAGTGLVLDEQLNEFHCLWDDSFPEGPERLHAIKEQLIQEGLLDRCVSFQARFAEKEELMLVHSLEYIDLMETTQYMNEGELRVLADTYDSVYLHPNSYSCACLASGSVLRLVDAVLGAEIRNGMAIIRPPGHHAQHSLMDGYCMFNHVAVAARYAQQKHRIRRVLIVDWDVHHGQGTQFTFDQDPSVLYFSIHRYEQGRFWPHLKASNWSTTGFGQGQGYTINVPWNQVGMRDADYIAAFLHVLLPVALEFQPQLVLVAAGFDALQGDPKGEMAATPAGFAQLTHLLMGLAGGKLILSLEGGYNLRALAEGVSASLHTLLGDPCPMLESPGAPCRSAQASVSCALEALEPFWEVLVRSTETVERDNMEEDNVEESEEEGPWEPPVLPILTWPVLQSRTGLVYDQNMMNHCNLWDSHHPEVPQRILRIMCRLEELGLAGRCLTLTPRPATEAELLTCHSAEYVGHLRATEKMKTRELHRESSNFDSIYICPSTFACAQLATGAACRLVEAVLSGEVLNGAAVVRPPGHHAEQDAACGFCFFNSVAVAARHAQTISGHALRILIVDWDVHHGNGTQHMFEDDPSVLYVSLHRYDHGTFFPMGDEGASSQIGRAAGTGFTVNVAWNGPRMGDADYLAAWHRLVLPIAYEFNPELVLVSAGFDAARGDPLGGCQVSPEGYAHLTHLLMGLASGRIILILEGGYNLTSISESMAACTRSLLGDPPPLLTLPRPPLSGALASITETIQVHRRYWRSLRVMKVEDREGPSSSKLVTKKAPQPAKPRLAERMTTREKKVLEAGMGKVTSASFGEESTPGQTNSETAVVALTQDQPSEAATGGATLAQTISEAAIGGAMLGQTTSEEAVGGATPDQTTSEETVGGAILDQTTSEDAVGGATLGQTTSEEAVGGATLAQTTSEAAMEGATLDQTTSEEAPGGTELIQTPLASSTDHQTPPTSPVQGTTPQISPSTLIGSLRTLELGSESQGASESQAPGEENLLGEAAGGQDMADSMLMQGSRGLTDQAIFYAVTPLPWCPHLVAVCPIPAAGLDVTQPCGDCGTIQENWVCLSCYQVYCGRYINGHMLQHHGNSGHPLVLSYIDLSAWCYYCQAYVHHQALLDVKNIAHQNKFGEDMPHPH

[2] = tested on: SH-SY5Y; experiment: Induction of neurogenesis in human SH-SY5Y cells assessed as induction of GAP-43 mRNA expression at 10 uM measured after 24 hrs by RT-PCR analysis relative to control; type: functional
[3] = tested on: SH-SY5Y; experiment: Induction of neurogenesis in human SH-SY5Y cells assessed as induction of N-myc mRNA expression at 10 uM measured after 24 hrs by RT-PCR analysis relative to control; type: functional
[4] = tested on: SH-SY5Y; experiment: Induction of neurogenesis in human SH-SY5Y cells assessed as induction of MAP2 mRNA expression at 10 uM measured after 24 hrs by RT-PCR analysis relative to control; type: functional
[5] = Inhibition of Cu2+ induced amyloid beta (1 to 42 residues) (unknown origin) aggregation by measuring reduction in fluorescence intensity at 20 uM after 24 hrs by thioflavin-T fluorescence method relative to control
[6] = Disaggregation of Cu2+ induced amyloid beta (1 to 42 residues) (unknown origin) aggregation measuring reduction in fluorescence intensity at 20 uM after 24 hrs by thioflavin-T fluorescence method relative to control
[7] = tested on: SH-SY5Y; experiment: Neuroprotective activity against Cu2+/amyloid beta (1 to 42)-induced toxicity in human SH-SY5Y cells assessed as increase in cell viability at 3 uM after 24 hrs by MTT assay (reference value: 47.2%); type: functional
[8] = target: Histone deacetylase 4 (Homo sapiens, UniProt P56524); experiment: Inhibition of human HDAC4 using fluorogenic substrate incubated for 1 hrs by fluorescence plate reader assay
Sequence of Histone deacetylase 4 (P56524 whole entry): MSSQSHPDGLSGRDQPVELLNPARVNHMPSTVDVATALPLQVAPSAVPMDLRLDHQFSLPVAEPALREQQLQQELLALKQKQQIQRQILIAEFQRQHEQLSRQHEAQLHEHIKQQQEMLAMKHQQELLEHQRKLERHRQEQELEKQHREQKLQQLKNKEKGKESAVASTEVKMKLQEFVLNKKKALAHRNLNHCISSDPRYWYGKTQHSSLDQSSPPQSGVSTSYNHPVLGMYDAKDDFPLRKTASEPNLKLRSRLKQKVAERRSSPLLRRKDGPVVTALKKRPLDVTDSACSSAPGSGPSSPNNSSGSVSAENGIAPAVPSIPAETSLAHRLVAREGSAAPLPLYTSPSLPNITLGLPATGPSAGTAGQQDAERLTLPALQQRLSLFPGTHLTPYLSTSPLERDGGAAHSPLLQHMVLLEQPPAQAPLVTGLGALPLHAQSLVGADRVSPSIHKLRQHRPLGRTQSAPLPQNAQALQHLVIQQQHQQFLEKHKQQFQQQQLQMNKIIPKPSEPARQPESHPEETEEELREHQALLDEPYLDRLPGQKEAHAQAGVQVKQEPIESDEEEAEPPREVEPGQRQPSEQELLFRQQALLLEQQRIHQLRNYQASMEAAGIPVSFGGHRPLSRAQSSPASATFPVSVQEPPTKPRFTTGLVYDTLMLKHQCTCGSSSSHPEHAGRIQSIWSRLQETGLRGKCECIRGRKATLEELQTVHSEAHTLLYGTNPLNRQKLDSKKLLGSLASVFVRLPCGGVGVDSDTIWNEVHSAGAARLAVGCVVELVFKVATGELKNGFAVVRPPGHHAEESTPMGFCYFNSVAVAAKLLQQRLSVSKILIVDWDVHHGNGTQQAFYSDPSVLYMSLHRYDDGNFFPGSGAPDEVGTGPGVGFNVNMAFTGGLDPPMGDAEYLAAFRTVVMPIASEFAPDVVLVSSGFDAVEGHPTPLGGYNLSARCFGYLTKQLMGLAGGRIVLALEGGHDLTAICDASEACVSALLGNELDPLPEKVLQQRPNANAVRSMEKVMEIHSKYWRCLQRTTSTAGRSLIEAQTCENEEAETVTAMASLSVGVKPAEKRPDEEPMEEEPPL

[9] = target: T2, Polyamine deacetylase HDAC10 (Homo sapiens, UniProt Q969S8); experiment: Inhibition of human HDAC10 using fluorogenic substrate incubated for 1 hrs by fluorescence plate reader assay
T2 sequence (Q969S8 whole entry): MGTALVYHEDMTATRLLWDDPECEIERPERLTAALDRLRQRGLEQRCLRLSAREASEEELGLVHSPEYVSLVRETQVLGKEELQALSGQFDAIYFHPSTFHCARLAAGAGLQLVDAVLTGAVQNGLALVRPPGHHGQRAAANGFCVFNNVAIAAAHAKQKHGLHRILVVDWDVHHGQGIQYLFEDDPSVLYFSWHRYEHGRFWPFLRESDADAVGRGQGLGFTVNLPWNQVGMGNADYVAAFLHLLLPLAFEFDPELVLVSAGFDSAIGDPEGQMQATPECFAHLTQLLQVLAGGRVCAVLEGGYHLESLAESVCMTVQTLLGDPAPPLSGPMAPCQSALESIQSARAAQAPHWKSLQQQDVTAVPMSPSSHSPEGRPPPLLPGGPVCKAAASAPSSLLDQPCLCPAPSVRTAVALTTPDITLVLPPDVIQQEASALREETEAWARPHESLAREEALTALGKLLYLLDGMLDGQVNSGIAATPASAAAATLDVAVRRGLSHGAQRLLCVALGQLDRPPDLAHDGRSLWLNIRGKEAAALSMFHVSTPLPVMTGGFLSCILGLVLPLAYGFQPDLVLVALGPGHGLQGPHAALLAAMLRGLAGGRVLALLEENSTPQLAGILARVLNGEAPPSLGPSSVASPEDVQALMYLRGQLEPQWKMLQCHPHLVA

[10] = target: T3, Histone deacetylase 8 (Homo sapiens, UniProt Q9BY41); experiment: Inhibition of human HDAC8 using fluorogenic substrate incubated for 1 hrs by fluorescence plate reader assay
T3 sequence (Q9BY41 whole entry): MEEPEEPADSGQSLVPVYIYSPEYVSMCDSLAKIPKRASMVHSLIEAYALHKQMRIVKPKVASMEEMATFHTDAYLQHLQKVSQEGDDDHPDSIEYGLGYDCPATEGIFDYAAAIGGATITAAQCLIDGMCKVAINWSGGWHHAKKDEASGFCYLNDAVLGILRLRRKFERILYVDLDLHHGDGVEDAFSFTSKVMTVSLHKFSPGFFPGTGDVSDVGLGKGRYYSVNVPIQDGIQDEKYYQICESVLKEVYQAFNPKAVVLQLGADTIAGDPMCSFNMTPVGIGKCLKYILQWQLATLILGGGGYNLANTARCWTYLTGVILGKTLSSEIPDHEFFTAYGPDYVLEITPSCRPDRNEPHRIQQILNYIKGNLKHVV

[11] = target: Histone deacetylase 1 (Homo sapiens, UniProt Q13547); experiment: Inhibition of human HDAC1 using fluorogenic substrate incubated for 1 hrs by fluorescence plate reader assay
Sequence of Histone deacetylase 1 (Q13547 whole entry): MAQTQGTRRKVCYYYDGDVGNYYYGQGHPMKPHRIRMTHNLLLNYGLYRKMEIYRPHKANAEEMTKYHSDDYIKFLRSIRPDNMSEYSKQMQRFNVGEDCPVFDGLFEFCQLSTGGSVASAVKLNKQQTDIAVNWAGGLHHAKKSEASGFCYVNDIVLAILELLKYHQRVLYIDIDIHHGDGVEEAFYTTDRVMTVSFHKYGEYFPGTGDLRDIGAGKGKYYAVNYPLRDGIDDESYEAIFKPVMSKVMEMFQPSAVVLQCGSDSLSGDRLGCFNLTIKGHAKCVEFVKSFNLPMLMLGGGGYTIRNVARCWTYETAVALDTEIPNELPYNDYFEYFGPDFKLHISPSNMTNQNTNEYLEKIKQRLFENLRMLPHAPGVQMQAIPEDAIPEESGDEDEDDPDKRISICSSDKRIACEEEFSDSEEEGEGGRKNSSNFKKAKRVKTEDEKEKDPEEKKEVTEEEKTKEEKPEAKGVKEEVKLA

[12] = target: Histone deacetylase 2 (Homo sapiens, UniProt Q92769); experiment: Inhibition of human HDAC2 using fluorogenic substrate incubated for 1 hrs by fluorescence plate reader assay
Sequence of Histone deacetylase 2 (Q92769 whole entry): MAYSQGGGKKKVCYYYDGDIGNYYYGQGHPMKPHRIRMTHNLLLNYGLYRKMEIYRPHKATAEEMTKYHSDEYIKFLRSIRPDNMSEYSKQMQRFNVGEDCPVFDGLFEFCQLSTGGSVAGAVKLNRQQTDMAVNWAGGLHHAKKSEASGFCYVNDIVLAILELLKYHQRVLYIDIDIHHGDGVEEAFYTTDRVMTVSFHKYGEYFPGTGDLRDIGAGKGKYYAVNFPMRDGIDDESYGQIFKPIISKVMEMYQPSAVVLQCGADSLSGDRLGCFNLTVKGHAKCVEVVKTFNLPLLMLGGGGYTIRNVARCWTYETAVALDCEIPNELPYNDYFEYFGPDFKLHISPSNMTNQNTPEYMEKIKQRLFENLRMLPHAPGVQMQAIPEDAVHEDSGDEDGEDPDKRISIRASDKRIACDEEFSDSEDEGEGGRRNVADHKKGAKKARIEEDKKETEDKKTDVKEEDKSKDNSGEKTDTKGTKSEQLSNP

[13] = target: T4, Histone deacetylase 11 (Homo sapiens, UniProt Q96DB2); experiment: Inhibition of human HDAC11 using fluorogenic substrate incubated for 1 hrs by fluorescence plate reader assay
T4 sequence (Q96DB2 whole entry): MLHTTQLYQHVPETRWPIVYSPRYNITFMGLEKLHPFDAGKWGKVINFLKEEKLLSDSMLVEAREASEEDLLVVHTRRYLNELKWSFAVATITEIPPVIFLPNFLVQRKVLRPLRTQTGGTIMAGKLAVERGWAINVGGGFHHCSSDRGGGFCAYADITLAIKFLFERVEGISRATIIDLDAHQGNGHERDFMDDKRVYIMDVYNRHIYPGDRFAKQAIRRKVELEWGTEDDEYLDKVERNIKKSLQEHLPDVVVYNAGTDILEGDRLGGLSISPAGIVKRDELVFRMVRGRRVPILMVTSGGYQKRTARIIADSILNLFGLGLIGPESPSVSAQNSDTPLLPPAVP

[14] = tested on: SH-SY5Y; experiment: Cytotoxicity against human SH-SY5Y cells assessed as cell viability incubated for 24 hrs by MTT assay; type: cell-based
[15] = tested on: SH-SY5Y; experiment: Neuroprotective activity against amyloid beta (1 to 42)-induced cytotoxicity in human SH-SY5Y cells assessed as increase in cell viability at 3 uM after 24 hrs by MTT assay (reference value: 60.4%); type: functional
[16] = tested on: SH-SY5Y; experiment: Induction of neurogenesis in human SH-SY5Y cells assessed as fold induction of GAP-43 mRNA expression at 10 uM measured after 24 hrs by RT-PCR analysis relative to retinoic acid; type: functional
[17] = tested on: SH-SY5Y; experiment: Induction of neurogenesis in human SH-SY5Y cells assessed as fold induction of N-myc mRNA expression at 10 uM measured after 24 hrs by RT-PCR analysis relative to retinoic acid; type: functional
[18] = tested on: SH-SY5Y; experiment: Induction of neurogenesis in human SH-SY5Y cells assessed as fold induction of MAP2 mRNA expression at 10 uM measured after 24 hrs by RT-PCR analysis relative to retinoic acid; type: functional

## CNC(=O)Cn1cc(CN2c3ccccc3Sc3ccccc32)cn1
[1]
  IC50: > 1000 nM

## CC1=C(/C=C/C(C)=C/C=C/C(C)=C/C(=O)O)C(C)(C)CCC1 [TRETINOIN]
[2]
  Activity: 2.07
[3]
  Activity: 2.3
[4]
  Activity: 2.13

## O=C(NO)c1coc(CN2c3ccccc3Sc3ccccc32)n1
[1]
  IC50: 884 nM

## CNC(=O)c1ccc(CN(C)C23CC4C[C@@](C)(C2)C[C@](C)(C4)C3)nc1
[1]
  IC50: > 1000 nM

## O=C(CCc1ccc(CN2c3ccccc3Sc3ccccc32)cc1)NO
[1]
  IC50: 343 nM

## CCNC(=O)Cn1cc(CN2c3ccccc3Sc3ccccc32)cn1
[1]
  IC50: > 1000 nM

## Oc1c(I)cc(Cl)c2cccnc12 [CLIOQUINOL]
[5]
  inhibition: 38.9%
[6]
  Activity: Active
[7]
  Activity: 86.2%

## Cc1ccc2c(c1)c1c(n2Cc2ccc(C(=O)NO)cn2)CCN(C)C1
[1]
  IC50: 83 nM

## Cl.O=C(NO)c1ccc(CN2c3ccccc3Sc3ccccc32)nc1
[1]
  IC50: 2.54 nM
[8]
  IC50: 5.63 µM
[9]
  IC50: 8.63 µM
[10]
  IC50: 6.12 µM
[11]
  IC50: 743 nM
[12]
  IC50: 1960 nM
[13]
  IC50: 4.3 µM
[14]
  IC50: 115 µM
[15]
  Activity: 76.3%
[7]
  Activity: 82%
[2]
  Activity: 5.71
[3]
  Activity: 6.28
[4]
  Activity: 4.79
[16]
  fold change (FC): 2
[17]
  fold change (FC): 2
[18]
  fold change (FC): 2
